Where “and” joins values, the source holds several entries; their conditions need not be identical. Equal entries are not always repeated. Marks after values point to notes of the source that are not given here.
System: A549 human lung carcinoma cells
Test: In vitro potency assay for Photofrin®: A549 cells, 4 h drug absorption, wash, 10 min irradiation at 400-650 nm, 24 h, XTT viability, 4PL EC50
Format: cell-based
Set-up: key to EC50-XTT / EC50 STD / EC50 Test: EC50 as Photofrin concentration in μg/mL (4PL inflection point)
Conditions: for EC50 Test / Black plate EC50 / EC50 STD: in µg/mL; for Black plate EC50: black plate with black lid; for Clear Plate EC50: clear 96-well plate; for Potency of Test Sample / Potency of Test Sample, Mean / Experimental Potency: ratio EC50(standard)/EC50(test); for Potency of Test Sample / Potency of Test Sample, Mean: expected 0.5; for EC50 STD: standard sample (70 μg/mL high test drug concentration)
Procedure: Cell passaging of A549 cells is performed using fixed seeding densities to reduce assay variation resulting from cell culture conditions. […] Working in very low light conditions, Photofrin® is reconstituted in normal saline to 2.5 mg/mL and diluted further in culture medium at twice the desired final assay concentration, typically 140 μg/mL. A series of two-fold dilutions were then prepared from the 140 μg/mL solution and the diluted drug was added to the cells at 1:1 (v/v) according to the diagram shown in FIG. 11.
[…] The plate is then removed from the incubator, the drug is aspirated, the wells are washed with Dulbecco's phosphate buffered saline (DPBS) and fresh, pre-warmed medium is added to the wells. […] […] The wells covered with foil strips are important controls for the activity of Photofrin® in the absence of irradiation and the effect of light on the cells in the absence of drug.
The optical absorbance of the wells in column 1 (high drug concentration, no cells) is evaluated for absorption at 450 nm to ensure that the drug is not interfering with the XTT assay. The percent viability of each of the wells in columns 2-9 and 11 is calculated relative to the mean value of column 10 (cell control, no drug, no light). For each dose response obtained, a four parameter logistic (4PL) nonlinear regression analysis is performed of the percent viability versus the log-Photofrin® concentration. The point of inflection of the regression curve (C value) is defined as the EC50 and used in the calculation of relative potency. Curve fitting and calculation of the EC50 is performed with Softmax v5.4.2 (Molecular Devices, Inc.) or Prism v.5.04 (GraphPad, Software Inc.) software. The mean percent viability of columns 9 and 11 is also calculated.
• 1. Materials and Reagents • 1.1. A549 Human Lung Carcinoma (ATCC—Cat. No.: CCL-185) • 1.2. 25 cm^2 Flasks (Corning—Cat. No.: 431463, or equivalent) • 1.3. 75 cm^2 Flasks (Corning—Cat. No.: 431464, or equivalent) • 1.4. 50 mL tubes (Fisher Scientific—Cat. No. 17-512F, or equivalent) • 1.5. Hemacytometer • 1.6. RPMI-1640 (+) phenol red (Lonza—Cat. No.: 12-167F, or equivalent) • 1.7. HI-FBS (Gibco—Life Technologies—Cat No.: 10082-147, or equivalent) • 1.8. 200 mM L-Glutamine (Lonza—Cat. No.: 17-605E, or equivalent) • 1.9. 0.25% Trypsin-EDTA (Gibco—Cat. No.: 25200-056, or equivalent) • 2. Instruments • 2.1. Forma Scientific centrifuge with swinging bucket rotor (Model 5682, or equivalent) • 2.2. Water bath set at 37° C. • 2.3. […] Prepared Reagents • 3.1. RPMI-1640 Complete Media • 3.1.1. 500 mL bottle of RPMI-1640 basal media containing phenol red • 3.1.2. Add 50 mL HI-FBS • 3.1.3. Add 5.5 mL of 200 mM L-Glutamine • 4. Procedure • 4.1. Remove one vial of A549 lung carcinoma cells from liquid nitrogen storage and after ensuring that the vial is tightly closed, rapidly thaw vial by holding all but the top of the vial submerged in a 37° C. water bath until the vial contents begins to thaw but while ice still remains. • 4.2. Liberally spray the vial with 70% ethanol, wipe with tissue, and place into a laminar flow hood. • 4.3. Transfer the contents of the vial to a 50 mL conical tube containing 9 mL RPMI-1640 complete medium containing phenol red (Step 3.1) (hereafter referred to as complete medium in this method). • 4.4. Centrifuge the tube in a swing bucket rotor set at 1200 RPM (220 RCF) for five minutes at room temperature. • 4.5. Discard supernatant and gently flick the tube to resuspend the cells in the residual volume left in the tube. • 4.6. Add 5 mL complete medium, transfer the cell solution to a 25 cm^2 flask, and then place the flask into a 37° C. incubator with 5% CO2. • 4.7. Monitor the flask daily and when the cells reach approximately 80% confluence, remove the media, and wash the cells by adding 2 mL DPBS to the flask. Ensure that all cells are rinsed and discard the DPBS. • 4.8. Add 1 mL 0.25% trypsin-EDTA to prewash the cells, tip flask to coat all cells, and discard the trypsin. • 4.9. […]

[1] = seeding density 0.8 × 10^4 cells/well
[2] = seeding density 1.2 × 10^4 cells/well
[3] = seeding density 1.9 × 10^4 cells/well

EC50 Test (Test sample of theoretical potency 0.5): 21.3 and 21.7 | EC50 Test (Test sample of theoretical potency 2): 5.16 | EC50 Test (Test sample of theoretical potency 4 (dissolved in one-fourth the nominal volume), confidence interval wide due to poor curve fitting): 2.36* | Test Sample EC50 (Test sample, 35 μg/mL high test concentration regressed as if 70 μg/mL, Plate 1 (placement Standard, Test; left to right dilution; controls in columns 9-11)): 21.2 µg/mL | Test Sample EC50 (Test sample, 35 μg/mL high test concentration regressed as if 70 μg/mL, Plate 2 (placement Test, Standard; left to right dilution; controls in columns 9-11)): 22.2 µg/mL | Test Sample EC50 (Test sample, 35 μg/mL high test concentration regressed as if 70 μg/mL, Plate 3 (right to left dilution; controls in columns 9-11)): 21.5 µg/mL | Test Sample EC50 (Test sample, 35 μg/mL high test concentration regressed as if 70 μg/mL, Plate 4 (placement Standard, Test; left to right dilution; controls in columns 9-11)): 21.5 µg/mL | Test Sample EC50 (Test sample, 35 μg/mL high test concentration regressed as if 70 μg/mL, Plate 5 (left to right dilution; controls in columns 2-4)): 20.1 µg/mL | Test Sample EC50, Mean (Test sample, 35 μg/mL high test concentration regressed as if 70 μg/mL, mean across Plates 1-5 of positional analysis): 21.3 µg/mL | Black plate EC50 (experiment PIN-004, nine point dose response 250-0.977 μg/m): 8.08 | Black plate EC50 (experiment PIN-008, six point dose response 30.0-1.09 μg/mL): 10.1 and 9.48 and 9.59 | Black plate EC50, Mean (black plate, mean of PIN-004 and PIN-008 values): 9.31 µg/mL | Clear Plate EC50 (experiment PIN-004, nine point dose response 250-0.977 μg/m, in µg/mL (unit assumed)): 1.87 | Clear Plate EC50 (experiment PIN-008, six point dose response 30.0-1.09 μg/mL, in µg/mL (unit assumed)): 2.49 and 2.46 and 2.33 | Clear Plate EC50, Mean (clear plate, mean of PIN-004 and PIN-008 values): 2.29 µg/mL | EC50-XTT (experiment PIN-009, XTT endpoint, in µg/mL (unit assumed)): 9.48 and 9.42 | EC50-XTT, Mean (experiment PIN-009, XTT endpoint, mean): 9.45 µg/mL | EC50 STD (assayed with Test sample of theoretical potency 0.25): 11.6 | EC50 STD (assayed with Test sample of theoretical potency 2): 10.6 | EC50 STD (assayed with Test sample of theoretical potency 4): 10.3
Substance: porfimer sodium [Photofrin®]
Potency of Test Sample (A549 cells at passage P10): 0.556 | Potency of Test Sample (A549 cells at passage P17): 0.526 | Potency of Test Sample (Inter-operator Assay, AB-1): 0.465 | Potency of Test Sample (Inter-operator Assay, AB-2): 0.564 | Potency of Test Sample, Mean (Inter-operator Assay, mean of operator AB plates): 0.515 | Potency of Test Sample, Mean (Inter-operator Assay, mean of operator KP plates): 0.487 | Potency of Test Sample (Inter-operator Assay, operator KP, both plates KP-1): 0.470 and 0.503 | Potency of Test Sample (absorption time 3.5 hours): 0.533 | Potency of Test Sample (absorption time 4.0 hours): 0.507 | Potency of Test Sample (absorption time 4.5 hours): 0.573 | Potency of Test Sample (irradiation time 8 minutes): 0.490 | Potency of Test Sample (irradiation time 9 minutes): 0.476 | Potency of Test Sample (irradiation time 10 minutes): 0.487 | Potency of Test Sample (irradiation time 11 minutes): 0.555 | Potency of Test Sample (irradiation time 12 minutes): 0.514 | Potency of Test Sample (operator AB Pilot Assay-1): 0.411 | Potency of Test Sample (operator AB Pilot Assay-2): 0.537 | Potency of Test Sample (post-irradiation incubation time 22 hours): 0.549 | Potency of Test Sample (post-irradiation incubation time 24 hours): 0.54 | Potency of Test Sample (post-irradiation incubation time 26 hours): 0.575 | Potency of Test Sample (post-irradiation temperature 35° C.): 0.448 | Potency of Test Sample (post-irradiation temperature 37° C. (nominal, two experiments)): 0.543 and 0.495 | Potency of Test Sample (post-irradiation temperature 39° C.): 0.516 | Potency of Test Sample [1]: 0.521 | Potency of Test Sample [2]: 0.391 | Potency of Test Sample [3]: 0.526 | Experimental Potency (theoretical potency 0.5): 0.526 and 0.516 | Experimental Potency (theoretical potency 2): 2.05 | Experimental Potency (theoretical potency 4, wide confidence interval on EC50): 4.36* | Mean Potency (ratio of the EC50(standard)/EC50(test), positional analysis, Plates 1-5, Test sample is Standard diluted two-fold): 0.516 | EC50 STD [1]: 11.0 | EC50 STD [2]: 10.9 | EC50 STD [3]: 11.2 | killing of the cells (treatment of cells followed by irradiation at 400-650 nm): dose-dependent killing of the cells
